According to patent publication US20220125765A1, “PHARMACEUTICAL COMBINATIONS COMPRISING MEBENDAZOLE AND A STRONG OR MODERATE CYP1A2 INHIBITOR” (ZEPHAPHARM LTD, priority 2019, published 2022):
Read-outs that look alike come from different tables or passages of the source.

Key:
[1] = system: 786-O; assay: 2D monolayer CellTiter-Blue viability, renal cancer 786-O; type: cell-based; conditions: for IC50: Homo sapiens, 786-0, 72 h
Procedure: (§1) Mebendazole was tested in vitro across a panel of 12 tumor cell lines of ovarian and renal cancer by using a 2D monolayer assay. […] OVXF 899L and RXF 486L are P-gp expressing, multidrug resistant cell lines.
(§2) Anti-tumor activity is expressed as absolute and relative IC50/70 values, calculated by 4-parameter non-linear curve fit.

[2] = system: OVCAR-3; assay: 2D monolayer CellTiter-Blue viability, ovarian cancer OVCAR-3; type: cell-based; conditions: for IC50: Homo sapiens; for Test/Control (%) at Drug Concentration: 72 h
Procedure: as §1, §2

[3] = system: NBXF SH-SY5Y; assay: 2D monolayer CellTiter-Blue viability, neuroblastoma SH-SY5Y; type: cell-based; conditions: 72 h
Procedure: (§3) Seventeen compounds, including mebendazole (Batch no. […] Efficacy of compounds was assessed using CellTiter-Blue® Cell Viability Assay. Anti-tumor activity is expressed as absolute and relative IC50 and IC70 values, calculated by non-linear regression analysis.

[4] = target: T1, CYP2B6 (Homo sapiens, UniProt P20813); assay: Cytochrome P450 reaction phenotyping, recombinant CYP2B6 (Bactosomes)
T1 sequence (P20813 1-491): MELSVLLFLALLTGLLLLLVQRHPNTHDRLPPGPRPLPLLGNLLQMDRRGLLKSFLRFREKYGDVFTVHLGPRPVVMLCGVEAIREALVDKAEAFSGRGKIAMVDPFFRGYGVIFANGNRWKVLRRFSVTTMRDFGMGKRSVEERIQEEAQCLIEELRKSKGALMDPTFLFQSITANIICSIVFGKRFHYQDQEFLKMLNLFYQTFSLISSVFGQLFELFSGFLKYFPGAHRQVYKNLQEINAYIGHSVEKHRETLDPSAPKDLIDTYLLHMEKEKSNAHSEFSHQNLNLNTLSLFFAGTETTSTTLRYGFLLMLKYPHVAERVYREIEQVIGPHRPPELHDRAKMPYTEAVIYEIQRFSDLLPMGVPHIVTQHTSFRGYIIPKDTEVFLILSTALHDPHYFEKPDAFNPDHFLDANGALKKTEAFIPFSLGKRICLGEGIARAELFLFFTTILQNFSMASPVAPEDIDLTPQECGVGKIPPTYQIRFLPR
Procedure: Incubations were also performed using control Bactosomes™ (no P450 enzymes present) to reveal any non-enzymatic degradation. Control compounds known to be metabolised specifically by each P450 isoform were included. All incubations were performed singularly for each test compound.
Incubations were also performed using control Bactosomes™ (no P450 enzymes present) to reveal any non-enzymatic degradation. Control compounds known to be metabolised specifically by each P450 isoform were included. All incubations were performed singularly for each test compound. […] The reactions were stopped by transferring an aliquot of incubate to quench solvent at the appropriate time points, in a 1:3 ratio. The termination plates were centrifuged at 3,000 rpm for 20 min at 4° C. to precipitate the protein.

[5] = system: NBXF CHP-212; assay: 2D monolayer CellTiter-Blue viability, neuroblastoma CHP-212; type: cell-based; conditions: 72 h
Procedure: as §3

`COC(=O)Nc1nc2ccc(C(=O)c3ccccc3)cc2[nH]1` [Mebendazole, methyl N-(6-benzoyl-1H-benzimidazol-2-yl)carbamate] was tested, and the “Test/Control (%) at Drug Concentration” value ([1]; 1.0E+00 μM, 72 h) was 20%, the “Test/Control (%) at Drug Concentration” value ([1]; 1.0E−01 μM, 72 h) was 95% and the “Test/Control (%) at Drug Concentration” value ([1]; 1.0E−02 μM, 72 h) was 87%. The “Test/Control (%) at Drug Concentration” value ([1]; 1.0E−03 μM, 72 h) was 98%, the “Test/Control (%) at Drug Concentration” value ([1]; 1.0E−04 μM, 72 h) was 107% and the “Test/Control (%) at Drug Concentration” value ([1]; 3.2E+00 μM, 72 h) was 9%. For the same molecule, the “Test/Control (%) at Drug Concentration” value ([1]; 3.2E−01 μM, 72 h) was 69%, the “Test/Control (%) at Drug Concentration” value ([1]; 3.2E−02 μM, 72 h) was 88% and the “Test/Control (%) at Drug Concentration” value ([1]; 3.2E−03 μM, 72 h) was 97%. The “Test/Control (%) at Drug Concentration” value ([1]; 3.2E−04 μM, 72 h) was 87%, the “Abs. IC70” value ([1]; 72 h) was 712 nM and the “Rel. IC70” value ([1]; 72 h) was 640 nM. The “Bot. (%)” value ([1]; 72 h, curve fit) was 9%, the “Top (%)” value ([1]; 72 h, curve fit) was 94% and the IC50 ([1]; read-out: Abs. IC50) was 470 nM. It also gave an IC50 ([1]; read-out: Rel. IC50) of 457 nM, an IC50 ([2]; OVCAR-3, 72 h, read-out: Abs. IC50) of 426 nM and an IC50 ([2]; OVCAR-3, 72 h, read-out: Rel. IC50) of 362 nM. For the same molecule, the “Test/Control (%) at Drug Concentration” value ([2]; OVCAR-3, 1.0E+00 μM) was 27%, the “Test/Control (%) at Drug Concentration” value ([2]; OVCAR-3, 1.0E−01 μM) was 95% and the “Test/Control (%) at Drug Concentration” value ([2]; OVCAR-3, 1.0E−02 μM) was 97%. For the same molecule, the “Test/Control (%) at Drug Concentration” value ([2]; OVCAR-3, 1.0E−03 μM) was 89%, the “Test/Control (%) at Drug Concentration” value ([2]; OVCAR-3, 1.0E−04 μM) was 97% and the “Test/Control (%) at Drug Concentration” value ([2]; OVCAR-3, 3.2E+00 μM) was 26%. The “Test/Control (%) at Drug Concentration” value ([2]; OVCAR-3, 3.2E−01 μM) was 69%, the “Test/Control (%) at Drug Concentration” value ([2]; OVCAR-3, 3.2E−02 μM) was 90% and the “Test/Control (%) at Drug Concentration” value ([2]; OVCAR-3, 3.2E−03 μM) was 93%. The “Test/Control (%) at Drug Concentration” value ([2]; OVCAR-3, 3.2E−04 μM) was 103%, the “Abs. IC70” value ([2]; OVCAR-3, 72 h) was 749 nM and the “Rel. IC70” value ([2]; OVCAR-3, 72 h) was 447 nM. For the same molecule, the “Bot. (%)” value ([2]; OVCAR-3, 72 h, curve fit) was 26%, the “Top (%)” value ([2]; OVCAR-3, 72 h, curve fit) was 95% and the “Test/Control (%) at Drug Concentration” value ([3]; 1.0E+00 μM) was 1%. The “Test/Control (%) at Drug Concentration” value ([3]; 1.0E+01 μM) was 0%, the “Test/Control (%) at Drug Concentration” value ([3]; 1.0E+02 μM) was −1% and the “Test/Control (%) at Drug Concentration” value ([3]; 1.0E−01 μM) was 63%. For the same molecule, the “Test/Control (%) at Drug Concentration” value ([3]; 1.0E−02 μM) was 81%, the “Test/Control (%) at Drug Concentration” value ([3]; 3.2E+00 μM) was 1% and the “Test/Control (%) at Drug Concentration” value ([3]; 3.2E+01 μM) was 0%. The “Test/Control (%) at Drug Concentration” value ([3]; 3.2E−01 μM) was 6%, the “Test/Control (%) at Drug Concentration” value ([3]; 3.2E−02 μM) was 78% and the “Test/Control (%) at Drug Concentration” value ([3]; 3.2E−03 μM) was 94%. The “Compound Remaining (% of 0 min)” value ([4]; CYP2B6, 5 μM, 0 min) was 100 % of 0 min, the “Compound Remaining (% of 0 min)” value ([4]; CYP2B6, 5 μM, 5 min) was 117 % of 0 min and the “Compound Remaining (% of 0 min)” value ([4]; CYP2B6, 5 μM, 15 min) was 108 % of 0 min. The “Compound Remaining (% of 0 min)” value ([4]; CYP2B6, 5 μM, 30 min) was 112 % of 0 min, the “Compound Remaining (% of 0 min)” value ([4]; CYP2B6, 5 μM, 45 min) was 113 % of 0 min and the “% compound remaining” value ([4]; CYP2B6, 5 μM, time not stated) was over 87.5%. For the same molecule, the t1/2 ([4]; CYP2B6, substrate 5 μM) was over 2.25 h, the half-life at 5 μM ([4]; human, recombinant CYP2B6 (Bactosomes), pH 7.4) was over 2.25 h and the “Test/Control (%) at Drug Concentration” value ([5]; CHP-212, 1.0E+00 μM) was 14%. For the same molecule, the “Test/Control (%) at Drug Concentration” value ([5]; CHP-212, 1.0E+01 μM) was 23%, the “Test/Control (%) at Drug Concentration” value ([5]; CHP-212, 1.0E+02 μM) was 19% and the “Test/Control (%) at Drug Concentration” value ([5]; CHP-212, 1.0E−01 μM) was 59%. For the same molecule, the “Test/Control (%) at Drug Concentration” value ([5]; CHP-212, 1.0E−02 μM) was 98%, the “Test/Control (%) at Drug Concentration” value ([5]; CHP-212, 3.2E+00 μM) was 20% and the “Test/Control (%) at Drug Concentration” value ([5]; CHP-212, 3.2E+01 μM) was 27%. For the same molecule, the “Test/Control (%) at Drug Concentration” value ([5]; CHP-212, 3.2E−01 μM) was 19%, the “Test/Control (%) at Drug Concentration” value ([5]; CHP-212, 3.2E−02 μM) was 88% and the “Test/Control (%) at Drug Concentration” value ([5]; CHP-212, 3.2E−03 μM) was 95%.
